According to patent US12234257B2, “Triterpene saponin derivative and use thereof” (KOREA INSTITUTE OF SCIENCE AND TECHNOLOGY, priority 2020, dated 2025):

Assays:
[1] = system: MPTP-induced in vivo PD model; test: Rotarod test; set-up: species or system mice (C57BL/6j); conditions: MPTP 30 mg/kg i.p. mice; for behavioral performance in rotarod test (latency to fall): 2 hours and 24 hours after last MPTP
Method: In this study, all animal management and experimental protocols were performed in compliance with guidelines of the Institutional Animal Care and Use Committee of the Korea Institute of Science and Technology. 40 mice (C57BL/6j, male, 8 weeks old) were purchased from SLC Inc. (Shizuoka, Japan). After arrival, every four mice were hosed in each cage (30 cm×18.5 cm×13 cm) and allowed free access to feed and water. All mice were housed under the following constant conditions: lights on from 6:00 to 18:00, a temperature of 23° C.±1° C., and a humidity of 50%±10%. After 7 days of a habituation period, the mice were used in the experiments according to standard protocols. 40 mice were classified into five groups such that eight mice belonged to each group. After the habituation period, all mice were orally administered with a drug every day. […] Each mouse was administered with a single dose of saline/MPTP injection every day for 8 days. At 7 days after the final MPTP injection, all mice were sacrificed by cervical dislocation, and then the whole brain, SNpc, and striatum (ST) were excised for biochemical analysis. […] A rotarod test was performed according to a known method with minimal modification (Borlongan C. V. et al., Pharmacology Biochemistry and Behavior. 1995, 52:225; Hu X. et al., Neuropharmacology, 2017, 117:352). Briefly, the test consisted of a pretraining section and a test section. The pretraining section was performed for consecutive 4 days. The mice were positioned in a cylinder of a rotarod apparatus such that tails of all mice faced an operator and trained for 300 seconds at a constant speed of 16 rpm. During the 300 seconds, mice falling to the floor were placed back on the cylinder by the operator. All mice were trained three times in total every day at an interval of about 30 minutes before administration of MPTP. […] Latency to fall off the rotarod was recorded for each mouse. […] Latency to fall off the rotarod was measured for each mouse. […] An average time of three tests was calculated to evaluate balance, grip strength, and motor coordination.

TH and α-synuclein = test: Western blot of TH and α-synuclein in ST and SN of MPTP-impaired mice; type: in vivo, mice (C57BL/6j); conditions: for α-synuclein level: vs MPTP-treated mice; for TH level: MPTP mice
Method: 40 mice were classified into five groups such that eight mice belonged to each group. After the habituation period, all mice were orally administered with a drug every day. While the mice of Groups 1 and 2 were administered with saline (p.o.), the mice of Groups 3, 4, and 5 were administered with 5 mg/kg ropinirole (p.o.), 5 mg/kg AKNS-2 (p.o.), and 15 mg/kg AKNS-2 (p.o.), respectively. From the 5th day therefrom, the mice of Group 1 were intraperitoneally administered with a saline at 1 hour after gavage feeding of saline, and the mice of Groups 2, 3, 4, and 5 were administered with 30 mg/kg MPTP (i.p.) at 1 hour after gavage feeding of saline, ropinirole, AKNS-2 (5 mg/kg), and AKNS-2 (15 mg/kg), respectively. Each mouse was administered with a single dose of saline/MPTP injection every day for 8 days. At 7 days after the final MPTP injection, all mice were sacrificed by cervical dislocation, and then the whole brain, SNpc, and striatum (ST) were excised for biochemical analysis.
On the 7th day after the last administration of MPTP, SNpc and ST of each mouse were carefully excised and stored at −80° C. until use. Thereafter, brain tissue of SNpc and ST was homogenized in a PRO-PREP™ lysis buffer (iNtRON, Gyeonggi, Korea) containing a phosphatase inhibitor cocktail set I (Sigma-Aldrich, Mo., USA). After shaking at 4° C. for 30 minutes, homogenates were centrifuged at 4° C. at 13000×g for 20 minutes, and a supernatant obtained therefrom was collected and added to a new 1.5 mL tube. A concentration of proteins contained in the supernatant was measured by the Bradford method. A part of the supernatant was mixed with the same volume of a loading buffer and denatured in a heater at 99° C. for 5 minutes for western blot analysis. The remaining supernatant was stored at −80° C. for subsequent tests for MAO-B activity and DA level using an ELISA kit.
Protein markers contained in lysates of the SH-SY5Y cells and brain tissue of the mice (SNpc and ST) were measured by western blot analysis. […] Then, proteins separated on the gel were transferred to a polyvinylidene fluoride (PVDF) membrane for 45 minutes using a Trans-Blot Turbo Transfer System (Bio-Rad, USA). The membrane was washed with tris-buffered saline with 0.1% Tween 20, TBST) for 5 minutes and then blocked by 5% skim milk dissolved in a TBST buffer. The membrane was further incubated with monoclonal primary antibodies derived from rabbits (anti-GAPDH, anti-AMPK, anti-p-AMPK, anti-ULK, anti-p-ULK555, anti-Erk, anti-p-Erk, anti-mTOR, anti-p-mTOR, anti-LC3B, anti-TH, and anti-α-synuclein antibodies). The primary antibodies were diluted in a blocking buffer at a ratio of 1:1000 and incubated overnight at 4° C. […] The intensity of the protein blots was quantified using Multi Gauge software (Fujifilm, Japan).

[2] = both ST and SN, 5 mg/kg and 15 mg/kg p.o.

SMILES	behavior performance in rotarod test (latency to fall) ([1]; 5 mg/kg p.o., at 24 hours)	behavioral performance in rotarod test (latency to fall) ([1]; 15 mg/kg p.o.)	α-synuclein level (TH and α-synuclein; [2])	TH level (TH and α-synuclein; [2])	behavioral performance in rotarod test (latency to fall) ([1]; 5 mg/kg p.o.)	α-synuclein level (TH and α-synuclein; ST and SN, 5 mg/kg p.o.)	TH level (TH and α-synuclein; both ST and SN, 5 mg/kg p.o.)
C[C@@H]1O[C@@H](O[C@@H]2[C@@H](O)[C@H](O[C@@H]3[C@@H](O[C@@H]4OC[C@@H](O)[C@H](O)[C@H]4O)[C@@H](O)[C@H](O[C@H]4[C@H](OC(=O)[C@]56CCC(C)(C)C[C@H]5C5=CC[C@@H]7[C@@]8(C)C[C@H](O)[C@H](O[C@@H]9O[C@H](CO)[C@@H](O)[C@H](O[C@@H]%10OC[C@@H](O)[C@H](O)[C@H]%10O)[C@H]9O)[C@@](C)(CO)[C@@H]8CC[C@@]7(C)[C@]5(C)C[C@H]6O)OC[C@H](O)[C@@H]4O)O[C@H]3C)OC[C@H]2O)[C@H](O)[C@H](O)[C@H]1O [Compound 1, 3-O-β-D-xylopyranosyl-(1→3)-β-D-glucopyranosylpolygalacic acid 28-O-α-L-rhamnopyranosyl-(1→3)-β-D-xylopyranosyl-(1→4)-[β-D-xylopyranosyl-(1→3)]-α-L-rhamnopyranosyl-(1→2)-α-L-arabinopyranosyl ester]	significantly improved MPTP-impaired behavior performance	the impairment was reversed	a significant decrease in the α-synuclein level	considerably reversed	–	–	–
CCCN(CCC)CCc1cccc2c1CC(=O)N2 [ropinirole, reference compound]	–	–	–	–	the impairment was reversed	a significant decrease in the α-synuclein level	considerably reversed
